Reference: patent publication US7160685B2, “Diagnostic reagents for human cytomegalovirus and methods of use” (priority 1996, dated 2007)
Like-named read-outs stand apart in the source and are kept apart here.

Experiments:
[1] = target: HLA A*0209 (Homo sapiens, UniProt P04439, A260E/D140Y/D185E/D98H/E176V/E277Q/G131W/G231S/I119V/I121R/I166T/I218V/L300P/L318F/N151K/N90K/P208A/P217A/Q86G/Q94H/R138H/R169H/T345S)
Experimental: (§1) Twelve cell lines were subjected to chromium release assays in which they were pulsed with the 495 peptide (pp65495-503) nonamer, loaded with chromium-51, and incubated with two different HLA A*0201 restricted CTL which recognize the 495 peptide and HCMV. The specific cytotoxicity was calculated and is shown in tabular form below for the 1 μM and 1 nM concentrations of the 495 peptide.

[2] = target: HLA A*0217 (Homo sapiens, UniProt P04439, D140Y/D185E/D98H/E176V/E277Q/G131W/G231S/I119L/I121M/I166T/I218V/L300P/L318F/N151K/N90K/P208A/P217A/Q86G/Q94H/R138H/R169H/T345S/Y123F)
Experimental: as §1

[3] = target: HLA A*0204 (Homo sapiens, UniProt P04439, D140Y/D185E/D98H/E176V/E277Q/G131W/G231S/I119V/I121M/I166T/I218V/L300P/L318F/N151K/N90K/P208A/P217A/Q86G/Q94H/R138H/R169H/T345S)
Experimental: as §1

[4] = target: HLA A*0207 (Homo sapiens, UniProt P04439, D140Y/D185E/D98H/E176V/E277Q/G131W/G231S/I119V/I121R/I166T/I218V/L300P/L318F/N151K/N90K/P208A/P217A/Q86G/Q94H/R138H/R169H/T345S/Y123C)
Experimental: as §1

[5] = target: HLA A*0211 (Homo sapiens, UniProt P04439, D140Y/D185E/E176V/E277Q/G131W/G231S/I119V/I121R/I166T/I218V/L300P/L318F/N151K/N90K/P208A/P217A/Q86G/Q94H/R138H/R169H/T345S/T97I)
Experimental: as §1

[6] = system: 495 peptide targets; conditions: after 14 weeks; 495 peptide + PADRE + IFA
[7] = target: HLA A*0205 (Homo sapiens, UniProt P04439, D140Y/D185E/D98H/E176V/E277Q/F33Y/G131W/G231S/I119L/I121R/I166T/I218V/L180W/L300P/L318F/N151K/N90K/P208A/P217A/Q67R/Q86G/Q94H/R138H/R169H/T345S)
Experimental: as §1

[8] = target: HLA A*0206 (Homo sapiens, UniProt P04439, D140Y/D185E/D98H/E176V/E277Q/F33Y/G131W/G231S/I119V/I121R/I166T/I218V/L300P/L318F/N151K/N90K/P208A/P217A/Q86G/Q94H/R138H/R169H/T345S)
Experimental: as §1

[9] = target: HLA A*0210 (Homo sapiens, UniProt P04439, D140Y/D185E/D98H/E176V/E277Q/F33Y/G231S/I119V/I121R/I166T/I218V/L300P/L318F/N151K/N90K/P208A/P217A/Q86G/Q94H/R138H/R169H/T345S/Y123F)
Experimental: as §1

[10] = target: HLA A*0202 (Homo sapiens, UniProt P04439, D140Y/D185E/D98H/E176V/E277Q/G131W/G231S/I119L/I121R/I166T/I218V/L180W/L300P/L318F/N151K/N90K/P208A/P217A/Q67R/Q86G/Q94H/R138H/R169H/T345S)
Experimental: as §1

For `CSCC[C@H](NC(=O)[C@@H]1CCCN1C(=O)[C@@H](NC(=O)[C@H](CC(C)C)NC(=O)[C@@H](N)CC(N)=O)C(C)C)C(=O)N[C@H](C(=O)N[C@@H](C)C(=O)N[C@H](C(=O)N[C@H](C(=O)O)C(C)C)[C@@H](C)O)C(C)C` [SEQ ID NO:1], the specific cytotoxicity ([1]; A*0209, CTL 3-3F4, 1 nM) was “− (cytotoxicity less than 15%)”, the specific cytotoxicity ([1]; A*0209, CTL 3-3F4, 1 μM) was “+ (cytotoxicity greater than 30%)” and the specific cytotoxicity ([1]; A*0209, CTL VB-57, 1 nM) was “− (cytotoxicity less than 15%)”. The specific cytotoxicity ([1]; A*0209, CTL VB-57, 1 μM) was “+ (cytotoxicity greater than 30%)”, the specific cytotoxicity ([2]; A*0217, CTL 3-3F4, 1 nM) was “− (cytotoxicity less than 15%)” and the specific cytotoxicity ([2]; A*0217, CTL 3-3F4, 1 μM) was “+ (cytotoxicity greater than 30%)”. For the same compound, the specific cytotoxicity ([2]; A*0217, CTL VB-57, 1 nM) was “+ (cytotoxicity greater than 30%)”, the specific cytotoxicity ([2]; A*0217, CTL VB-57, 1 μM) was “+ (cytotoxicity greater than 30%)” and the specific cytotoxicity ([3]; A*0204, CTL 3-3F4, 1 nM) was “+ (cytotoxicity greater than 30%)”. For the same compound, the specific cytotoxicity ([3]; A*0204, CTL 3-3F4, 1 μM) was “+ (cytotoxicity greater than 30%)”, the specific cytotoxicity ([3]; A*0204, CTL VB-57, 1 nM) was “+ (cytotoxicity greater than 30%)” and the specific cytotoxicity ([3]; A*0204, CTL VB-57, 1 μM) was “+ (cytotoxicity greater than 30%)”. For the same compound, the specific cytotoxicity ([4]; A*0207, CTL 3-3F4, 1 nM) was “+ (cytotoxicity greater than 30%)”, the specific cytotoxicity ([4]; A*0207, CTL 3-3F4, 1 μM) was “+ (cytotoxicity greater than 30%)” and the specific cytotoxicity ([4]; A*0207, CTL VB-57, 1 nM) was “+ (cytotoxicity greater than 30%)”. For the same compound, the specific cytotoxicity ([4]; A*0207, CTL VB-57, 1 μM) was “+ (cytotoxicity greater than 30%)”, the specific cytotoxicity ([5]; A*0211, CTL 3-3F4, 1 nM) was “− (cytotoxicity less than 15%)” and the specific cytotoxicity ([5]; A*0211, CTL 3-3F4, 1 μM) was “+ (cytotoxicity greater than 30%)”. For the same compound, the specific cytotoxicity ([5]; A*0211, CTL VB-57, 1 μM) was “+ (cytotoxicity greater than 30%)”, the “Percent specific cytotoxicity (cytotoxicity of 495 peptide targets—cytotoxicity of p53 targets)” value [6] was 40% and the specific cytotoxicity ([7]; A*0205, CTL 3-3F4, 1 nM) was “− (cytotoxicity less than 15%)”. For the same compound, the specific cytotoxicity ([7]; A*0205, CTL 3-3F4, 1 μM) was “+ (cytotoxicity greater than 30%)”, the specific cytotoxicity ([7]; A*0205, CTL VB-57, 1 nM) was “+ (cytotoxicity greater than 30%)” and the specific cytotoxicity ([7]; A*0205, CTL VB-57, 1 μM) was “+ (cytotoxicity greater than 30%)”. The specific cytotoxicity ([8]; A*0206, CTL 3-3F4, 1 nM) was “+ (cytotoxicity greater than 30%)”, the specific cytotoxicity ([8]; A*0206, CTL 3-3F4, 1 μM) was “+ (cytotoxicity greater than 30%)” and the specific cytotoxicity ([8]; A*0206, CTL VB-57, 1 nM) was “+ (cytotoxicity greater than 30%)”. The specific cytotoxicity ([8]; A*0206, CTL VB-57, 1 μM) was “+ (cytotoxicity greater than 30%)”, the specific cytotoxicity ([9]; A*0210, CTL 3-3F4, 1 nM) was “+ (cytotoxicity greater than 30%)” and the specific cytotoxicity ([9]; A*0210, CTL 3-3F4, 1 μM) was “+ (cytotoxicity greater than 30%)”. The specific cytotoxicity ([9]; A*0210, CTL VB-57, 1 nM) was “+ (cytotoxicity greater than 30%)”, the specific cytotoxicity ([9]; A*0210, CTL VB-57, 1 μM) was “+ (cytotoxicity greater than 30%)” and the specific cytotoxicity ([10]; A*0202, CTL 3-3F4, 1 nM) was “− (cytotoxicity less than 15%)”. The specific cytotoxicity ([10]; A*0202, CTL 3-3F4, 1 μM) was “+ (cytotoxicity greater than 30%)”, the specific cytotoxicity ([10]; A*0202, CTL VB-57, 1 nM) was “− (cytotoxicity less than 15%)” and the specific cytotoxicity ([10]; A*0202, CTL VB-57, 1 μM) was “+ (cytotoxicity greater than 30%)”.
